Results reported in patent EP4678638A1, “NEW E3 UBIQUITIN LIGASE LIGAND, PROTEIN DEGRADATION AGENT AND USE THEREOF” (priority 2023, dated 2024).
Where two headings read alike, the source gives them in different places.

How the values were obtained:
[1] = system: MM.1S; assay: CCK-8 proliferation, MM.1S; type: cell-based; conditions: Homo sapiens, MM1.S, MM.1S cells, read-out: Inhibitory activity (IC50, nM) on tumor cell proliferation, MM.1S
Description: (§1) The tumor cells used herein were cultured in a cell culture medium listed in table A1 at 37°C in an incubator with 5% CO2. Prior to experimentation, all cell lines used were correctly identified by STR profiling, and tested negative for mycoplasma contamination using a mycoplasma detection kit through routine screenings. Table A1. Tumor cells and cell culture medium used in the present disclosure
(§2) IC50 values of the compounds of the present disclosure (including the compounds in Table 1, and compounds of examples) were measured using the Meilun Cell Counting Kit-8 kit from Dalian Meilun Biotech Co., Ltd. Assay details are as follows: tumor cells were seeded in a 96-well plate at a density listed in Table A2. After 24h, 100 µL of the inoculated cells were treated with 0.5µL of the compounds of the present disclosure (including the compounds in Tables 1 and 2, and compounds of examples) at 10 different successively decreasing concentrations (starting at the highest concentration of 10µM; 5-fold serial dilutions). After the cells were treated with the compounds of the present disclosure for a period of time, the cell viability detection reagent was added to the culture medium for cell viability assessment according to the instructions provided with the CCK-8 kit. […] The growth inhibition of the compounds of the present disclosure on cells was plotted by Prism Graphpad software, and the IC50 values of the compounds of the present disclosure were calculated therefrom. […] Seeding protocol and treatment time for tumor cells

[2] = system: SR; assay: CCK-8 proliferation, SR; type: cell-based, Human; conditions: Homo sapiens, SR cells, read-out: Inhibitory activity (IC50, nM) on tumor cell proliferation, SR
Description: as §1, §2

[3] = system: H2228; assay: CCK-8 proliferation, NCI-H2228 (H2228); type: cell-based; conditions: Homo sapiens, NCI-H2228; Table B6, compounds designed based on the ALK inhibitors; H2228 cells; read-out: Inhibitory activity (IC50, nM) on tumor cell proliferation, H2228
Description: as §1, §2

[4] = system: MCF7; assay: CCK-8 proliferation, MCF7 (MCF-7); type: cell-based; conditions: Homo sapiens, MCF7; Table B6, compounds designed based on the ALK inhibitors; MCF-7 cells; read-out: Inhibitory activity (IC50, nM) on tumor cell proliferation, MCF-7
Description: as §1, §2

[5] = system: H1975; assay: CCK-8 proliferation, NCI-H1975 (H1975); type: cell-based, Human; conditions: Homo sapiens, NCI-H1975; Table B6, compounds designed based on the ALK inhibitors; H1975 cells; read-out: Inhibitory activity (IC50, nM) on tumor cell proliferation, H1975
Description: as §1, §2

[6] = Table B10, compounds designed based on the IRAK4 inhibitors
[7] = Table B6, compounds designed based on the ALK inhibitors

| SMILES | IC50 [1, 6] | IC50 [3] | IC50 [4] | IC50 [5] | IC50 [1, 7] | IC50 [2, 6] | IC50 [2, 7] |
| --- | --- | --- | --- | --- | --- | --- | --- |
| O=C1CCC(c2ccc(CN3CCN(Cc4ccc5c(c4)nc(NC(=O)c4cccc(C(F)(F)F)c4)n5[C@H]4CC[C@@H](CO)CC4)CC3)cc2)C(=O)N1 (some centres unmarked) [GT-04978, N-(5-((4-(4-(2,6-dioxopiperidin-3-yl)benzyl)piperazin-1-yl)methyl)-1-((1s,4s)-4-(hydroxymethyl)cyclohexyl) -1H-benzo[d]imidazol-2-yl)-3-(trifluoromethyl)benzamide] | 500 to 1000 nM | – | – | – | – | 100 to 500 nM | – |
| COc1cc(N2CCC(N(C)Cc3cc(N4CCC(=O)NC4=O)ncc3F)CC2)ccc1Nc1ncc(Cl)c(Nc2ccccc2P(C)(C)=O)n1 [GT-07693, 1-(4-(((1-(4-((5-chloro-4-((2-(dimethylphosphoryl)phenyl)amino)pyrimidin-2-yl)amino)-3-methoxyphenyl)piperidin-4-yl)(methyl)amino)methyl)-5-fluoropyridin-2-yl)dihydropyrimidine-2,4(1H,3H)-dione] | – | 100 to 500 nM | 100 to 500 nM | 100 to 500 nM | – | – | 10 to 50 nM |
| COc1cc(N2CCN(Cc3ccnc(N4CCC(=O)NC4=O)c3)CC2)ccc1Nc1ncc(Cl)c(Nc2ccccc2P(C)(C)=O)n1 [GT-07708, 1-(4-((4-(4-((5-chloro-4-((2-(dimethylphosphoryl)phenyl)amino)pyrimidin-2-yl)amino)-3-methoxyphenyl)piperazin-1-yl)methyl)pyridin-2-yl)dihydropyrimidine-2,4(1H,3H)-dione] | – | 100 to 500 nM | 500 to 1000 nM | 100 to 500 nM | – | – | 10 to 50 nM |
| COc1cc(N2CCN(Cc3ccc(N4CCC(=O)NC4=O)nc3)CC2)ccc1Nc1ncc(Cl)c(Nc2ccccc2P(C)(C)=O)n1 [GT-07350, 1-(5-((4-(4-((5-chloro-4-((2-(dimethylphosphoryl)phenyl)amino)pyrimidin-2-yl)amino)-3-methoxyphenyl)piperazin-1-yl)methyl)pyridin-2-yl)dihydropyrimidine-2,4(1H,3H)-dione] | – | 100 to 500 nM | – | 500 to 1000 nM | – | – | 50 to 100 nM |
| CCc1cc2c(cc1N1CCC(N3CCN(Cc4ccc(N5CCC(=O)NC5=O)cc4)CC3)CC1)C(C)(C)c1[nH]c3cc(C#N)ccc3c1C2=O [GT-07307, 8-(4-(4-(4-(2,4-dioxotetrahydropyrimidin-1(2H)-yl)benzyl)piperazin-1-yl)piperidin-1-yl)-9-ethyl-6,6-dimethyl-11-oxo-6,11-dihydro-5H-benzo[b]carbazole-3-carbonitrile] | – | 100 to 500 nM | 100 to 500 nM | – | – | – | 10 to 50 nM |
| Cc1cc(Nc2ncc(Cl)c(Nc3ccccc3S(=O)(=O)C(C)C)n2)c(OC(C)C)cc1C1CCN(Cc2ccnc(C3CCC(=O)NC3=O)c2)CC1 (centres unmarked) [GT-07599, 3-(4-((4-(4-((5-chloro-4-((2-(isopropylsulfonyl)phenyl)amino)pyrimidin-2-yl)amino)-5-isopropoxy-2-methylphenyl)piperidin-1-yl)methyl)pyridin-2-yl)piperidine-2,6-dione] | – | 100 to 500 nM | 100 to 500 nM | – | 500 to 1000 nM | – | 10 to 50 nM |
| COc1cc(N2CCN(Cc3ccnc(C4CCC(=O)NC4=O)c3)CC2)ccc1Nc1ncc(Cl)c(Nc2ccccc2P(C)(C)=O)n1 (centres unmarked) [GT-07712, 3-(4-((4-(4-((5-chloro-4-((2-(dimethylphosphoryl)phenyl)amino)pyrimidin-2-yl)amino)-3-methoxyphenyl)piperazin-1-yl)methyl)pyridin-2-yl)piperidine-2,6-dione] | – | 100 to 500 nM | – | 500 to 1000 nM | – | – | 10 to 50 nM |
| COc1cc(N2CCN(Cc3cc(N4CCC(=O)NC4=O)ncc3F)CC2)ccc1Nc1ncc(Cl)c(Nc2ccccc2P(C)(C)=O)n1 [GT-07707, 1-(4-((4-(4-((5-chloro-4-((2-(dimethylphosphoryl)phenyl)amino)pyrimidin-2-yl)amino)-3-methoxyphenyl)piperazin-1-yl)methyl)-5-fluoropyridin-2-yl)dihydropyrimidine-2,4(1H,3H)-dione] | – | 100 to 500 nM | 500 to 1000 nM | 500 to 1000 nM | – | – | 10 to 50 nM |
| O=C1CCN(c2ccc(CN3CCC(n4cc(NC(=O)c5cnn6ccc(N7C[C@H]8C[C@@H]7CO8)nc56)c(C(F)F)n4)CC3)nc2)C(=O)N1 [GT-05053, 5-((1R,4R)-2-oxa-5-azabicyclo[2.2.1]heptan-5-yl)-N-(3-(difluoromethyl)-1-(1-((5-(2,4-dioxotetrahydropyrimidin-1(2H)-yl)pyridin-2-yl)methyl)piperidin-4-yl)-1H-pyrazol-4-yl)pyrazolo[1,5-a]pyrimidine-3-carboxamide] | 500 to 1000 nM | – | – | – | – | – | – |
| COc1cc(N2CCN(Cc3cc(C4CCC(=O)NC4=O)cnc3F)CC2)ccc1Nc1ncc(Cl)c(Nc2ccccc2P(C)(C)=O)n1 (centres unmarked) [GT-07710, 3-(5-((4-(4-((5-chloro-4-((2-(dimethylphosphoryl)phenyl)amino)pyrimidin-2-yl)amino)-3-methoxyphenyl)piperazin-1-yl)methyl)-6-fluoropyridin-3-yl)piperidine-2,6-dione] | – | 500 to 1000 nM | 100 to 500 nM | 500 to 1000 nM | – | – | 10 to 50 nM |
| CCc1cc2c(cc1N1CCC(N3CCN(Cc4ccc(C5CCC(=O)NC5=O)cn4)CC3)CC1)C(C)(C)c1[nH]c3cc(C#N)ccc3c1C2=O (centres unmarked) [GT-07705, 8-(4-(4-((5-(2,6-dioxopiperidin-3-yl)pyridin-2-yl)methyl)piperazin-1-yl)piperidin-1-yl)-9-ethyl-6,6-dimethyl-11-oxo-6,11-dihydro-5H-benzo[b]carbazole-3-carbonitrile] | – | 50 to 100 nM | 100 to 500 nM | 500 to 1000 nM | – | – | 1 to 10 nM |

Further lines, with some results ahead:

| IC50 [1, 6] | IC50 [3] | IC50 [4] | IC50 [5] | IC50 [1, 7] | SMILES | IC50 [2, 6] | IC50 [2, 7] |
| --- | --- | --- | --- | --- | --- | --- | --- |
| – | 10 to 50 nM | 100 to 500 nM | – | 500 to 1000 nM | Cc1cc(Nc2ncc(Cl)c(Nc3ccccc3S(=O)(=O)C(C)C)n2)c(OC(C)C)cc1C1CCN(Cc2cncc(C3CCC(=O)NC3=O)c2)CC1 (centres unmarked) [GT-07601, 3-(5-((4-(4-((5-chloro-4-((2-(isopropylsulfonyl)phenyl)amino)pyrimidin-2-yl)amino)-5-isopropoxy-2-methylphenyl)piperidin-1-yl)methyl)pyridin-3-yl)piperidine-2,6-dione] | – | 10 to 50 nM |
| – | 50 to 100 nM | 500 to 1000 nM | – | – | CCc1cc2c(cc1N1CCC(N3CCN(Cc4ccnc(N5CCC(=O)NC5=O)c4)CC3)CC1)C(C)(C)c1[nH]c3cc(C#N)ccc3c1C2=O [GT-07701, 8-(4-(4-((2-(2,4-dioxotetrahydropyrimidin-1(2H)-yl)pyridin-4-yl)methyl)piperazin-1-yl)piperidin-1-yl)-9-ethyl-6,6-dimethyl-11-oxo-6,11-dihydro-5H-benzo[b]carbazole-3-carbonitrile] | – | 1 to 10 nM |
| – | 50 to 100 nM | – | 500 to 1000 nM | – | CCc1cc2c(cc1N1CCC(N3CCN(Cc4ccnc(C5CCC(=O)NC5=O)c4)CC3)CC1)C(C)(C)c1[nH]c3cc(C#N)ccc3c1C2=O (centres unmarked) [GT-07704, 8-(4-(4-((2-(2,6-dioxopiperidin-3-yl)pyridin-4-yl)methyl)piperazin-1-yl)piperidin-1-yl)-9-ethyl-6,6-dimethyl-11-oxo-6,11-dihydro-5H-benzo[b]carbazole-3-carbonitrile] | – | 1 to 10 nM |
| – | 50 to 100 nM | 500 to 1000 nM | – | – | CCc1cc2c(cc1N1CCC(N3CCN(Cc4cc(N5CCC(=O)NC5=O)ncc4F)CC3)CC1)C(C)(C)c1[nH]c3cc(C#N)ccc3c1C2=O [GT-07700, 8-(4-(4-((2-(2,4-dioxotetrahydropyrimidin-1(2H)-yl)-5-fluoropyridin-4-yl)methyl)piperazin-1-yl)piperidin-1-yl)-9-ethyl-6,6-dimethyl-11-oxo-6,11-dihydro-5H-benzo[b]carbazole-3-carbonitrile] | – | 1 to 10 nM |
| – | 50 to 100 nM | 500 to 1000 nM | – | 500 to 1000 nM | Cc1cc(Nc2ncc(Cl)c(Nc3ccccc3S(=O)(=O)C(C)C)n2)c(OC(C)C)cc1C1CCN(Cc2cncc(N3CCC(=O)NC3=O)c2)CC1 [GT-07597, 1-(5-((4-(4-((5-chloro-4-((2-(isopropylsulfonyl)phenyl)amino)pyrimidin-2-yl)amino)-5-isopropoxy-2-methylphenyl)piperidin-1-yl)methyl)pyridin-3-yl)dihydropyrimidine-2,4(1H,3H)-dione] | – | 10 to 50 nM |
